The source of these data is patent US6548449B1, “Substituted phenyluracils with herbicidal effect” (Bayer Aktiengesellschaft, priority 1998, dated 2003).

The subject of data set [1] is weeds. Description: Post-emergence test, activity against weeds. The format is in vivo. The note with it: test plants of a height of 5-15 cm sprayed, rated after three weeks vs untreated control. The protocol: (§1) Solvent: 5 parts by weight of acetone
(§2) Emulsifier: 1 part by weight of alkylaryl polyglycol ether
To produce a suitable preparation of active compound, 1 part by weight of active compound is mixed with the stated amount of solvent, the stated amount of emulsifiers is added and the concentrate is diluted with water to the desired concentration.
Test plants of a height of 5-15 cm are sprayed with the preparation of active compound such that the particular amounts of active compound are employed per unit area. The concentration of the spray liquor is chosen so that the particular amounts of active compound desired are applied in 1000 l of water/ha.
(§3) After three weeks, the degree of damage to the plants is rated in % damage in comparison to the development of the untreated control.
(§4) 0%=no effect (like untreated control)

Data set [2] deals with crop plants, such as, for example, barley and cotton. Description: Pre-emergence test, tolerance by crop plants. Format: in vivo. The note with it: rated after three weeks. How it is done:
as §1, §2
(§5) To produce a suitable preparation of active compound, 1 part by weight of active compound is mixed with the stated amount of solvent, the stated amount of emulsifier is added and the concentrate is diluted with water to the desired concentration.
(§6) Seeds of the test plants are sown in normal soil. After about 24 hours, the soil is sprayed with the preparation of active compounds such that the particular amounts of active compound desired are applied per unit area. The concentration of the spray liquor is chosen so that the particular amounts of active compound desired are applied in 1000 l of water/ha.
as §3, §4

Data set [3] has as its system weeds. Description: Pre-emergence test, activity against weeds. The note with it: soil sprayed about 24 hours after sowing, rated after three weeks vs untreated control. Format: in vivo. How it is done: as §1, §2, §5, §6, §3, §4

In general, melting point refers to the temperature, or range, at which the solid turns liquid.

`Cn1c(C(F)(F)F)cc(=O)n(-c2ccc(OCc3ccc(Cl)c(N)c3)cc2F)c1=O` [Example 4, 1-[2-fluoro-4-(3-amino-4-chloro-benzyloxy)-phenyl]-3-methyl-4-trifluoromethyl-3,6-dihydro-2,6-dioxo-1 (2H)-pyrimidine] came in with a melting point of 148 °C. In addition, in the data set with weeds [1], the “activity against weeds (degree of damage to the plants)” value (“activity against weeds” below) was “very strong activity”.

For `O=c1cc(C(F)(F)F)[nH]c(=O)n1-c1ccc(OCc2ccc(Cl)c([N+](=O)[O-])c2)cc1F` [Example 1, 1-[2-fluoro-4-(4-chloro-3-nitro-benzyloxy)-phenyl]-4-trifluoromethyl-3,6-dihydro-2,6-dioxo-1(2H)-pyrimidine], the melting point was determined as 165 °C.

For the compound `Cn1c(C(F)(F)F)cc(=O)n(-c2ccc(OCc3ccc(Cl)c([N+](=O)[O-])c3)cc2F)c1=O` [Example 2, 1-[2-fluoro-4-(4-chloro-3-nitro-benzyloxy)-phenyl]-3-methyl-4-trifluoromethyl-3,6-dihydro-2,6-dioxo-1 (2H)-pyrimidine], the melting point was found to be 133 °C. Also, the “activity against weeds” value with weeds [1] was “very strong activity”.

With `Nn1c(C(F)(F)F)cc(=O)n(-c2ccc(OCc3ccc(Cl)c([N+](=O)[O-])c3)cc2F)c1=O` [Example 3, 3-amino-1-[2-fluoro-4-(4-chloro-3-nitro-benzyl-oxy)-phenyl]-4-trifluoromethyl-3,6-dihydro-2,6-dioxo-1(2H)-pyrimidine], the melting point is 185 °C. In addition, the “activity against weeds” value with weeds [1] is on record as “very strong activity”.

Turning to `CCS(=O)(=O)Nc1cc(COc2ccc(-n3c(=O)cc(C(F)(F)F)n(C)c3=O)c(F)c2)ccc1Cl` [Example 5, 1-[2-fluoro-4-(4-chloro-3-ethylsulphonylamino-benzyloxy)-phenyl]-3-methyl-4-trifluoromethyl-3,6-dihydro-2,6-dioxo-1(2H)-pyrimidine], the melting point was determined as 151 °C. Besides, in the data set with weeds [1], the “activity against weeds” value was “very strong activity”. Besides, in data set [2], the “tolerance by crop plants” value is “tolerated well”. The “activity against weeds” value with weeds [3] is “very strong activity”.
